The results in this text go back to patent US12122761B2, “2-azaspiro[3.4]octane derivatives as M4 agonists” (NOVARTIS AG, priority 2019, dated 2024).

Test [1] concerns the target T1, human cloned CHRM4 receptor (M4_CHO cells) (Homo sapiens, UniProt P08173).
T1 construct: expressed in transfected cells; host or cells: CHO-K1
T1 sequence (P08173 1-479): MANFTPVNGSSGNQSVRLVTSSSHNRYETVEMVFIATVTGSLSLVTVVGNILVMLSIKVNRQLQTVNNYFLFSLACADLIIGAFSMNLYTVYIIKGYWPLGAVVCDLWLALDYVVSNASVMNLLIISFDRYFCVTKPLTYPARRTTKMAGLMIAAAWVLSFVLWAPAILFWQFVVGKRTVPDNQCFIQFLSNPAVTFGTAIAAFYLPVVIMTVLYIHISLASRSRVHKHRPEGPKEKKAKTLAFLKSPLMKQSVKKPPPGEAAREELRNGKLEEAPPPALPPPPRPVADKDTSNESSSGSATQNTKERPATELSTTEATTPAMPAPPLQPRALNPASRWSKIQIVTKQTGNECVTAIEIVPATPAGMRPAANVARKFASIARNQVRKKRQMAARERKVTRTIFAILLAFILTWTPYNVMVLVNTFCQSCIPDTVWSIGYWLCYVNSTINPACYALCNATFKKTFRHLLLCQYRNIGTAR
Description: CHRM4 Ca++ Flux Assay (agonist mode, FDSS 7000EX). The format is cell-based. The following applies: for M4 FDSS PA / Emax: Percent Activity; for EC50: geometric mean if tested more than once, read-out: M4 FDSS EC50; for Emax: read-out: M4 FDSS PA. An outline of the steps:
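M4_CHO cells loaded with a Ca++ dye for at least 1 h were held 60 min at room temperature in HEPES/probenecid buffer with 20 μM ATP. Ca++ flux after an 11-point compound dose, in triplicate and agonist mode, was recorded over 3 min. Four-parameter fits gave curves, with activity expressed relative to the Carbachol EC100.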

The target of test [2] is T2, human cloned CHRM2 receptor (M2_CHO cells) (Homo sapiens, UniProt P08172).
T2 construct: expressed in transfected cells; host or cells: CHO-K1
T2 sequence (P08172 1-466): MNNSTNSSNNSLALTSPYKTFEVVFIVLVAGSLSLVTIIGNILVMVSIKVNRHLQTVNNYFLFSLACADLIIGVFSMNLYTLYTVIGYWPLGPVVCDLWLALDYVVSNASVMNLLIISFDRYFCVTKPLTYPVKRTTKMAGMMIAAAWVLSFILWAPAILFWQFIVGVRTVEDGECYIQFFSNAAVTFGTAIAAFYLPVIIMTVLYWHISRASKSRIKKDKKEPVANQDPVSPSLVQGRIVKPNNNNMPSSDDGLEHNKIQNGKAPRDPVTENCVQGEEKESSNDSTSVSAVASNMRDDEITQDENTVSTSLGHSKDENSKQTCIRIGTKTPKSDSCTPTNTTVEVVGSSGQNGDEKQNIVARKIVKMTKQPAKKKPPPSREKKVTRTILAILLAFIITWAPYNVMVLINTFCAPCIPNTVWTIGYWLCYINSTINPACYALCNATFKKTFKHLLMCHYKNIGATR
Description: CHRM2 Ca++ Flux Assay (agonist mode, FDSS 7000EX). The format is cell-based. The following applies: for M2 FDSS PA / Emax: Percent Activity measured to EC100 of Carbachol; for EC50: agonist mode, geometric mean if tested more than once, read-out: M2 FDSS EC50; for Emax: read-out: M2 FDSS PA. An outline of the steps: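 Agonist-mode Ca++ flux in CHO-K1 cells stably expressing human CHRM2, dye-loaded, then held 60 min at room temperature in buffer with 20 μM ATP before compound addition; traces read over 3 minutes. Four-parameter fit of triplicate wells; percent activity relative to Carbachol EC100.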

Bounds are passed on as bounds.

As a reminder, the EC50 is the concentration giving half of the maximal effect. On to `O=C(N1CC2(CC[C@@H](N3CCC(c4ccccc4OCCO)CC3)C2)C1)C1(F)CC1` (single isomer, unassigned) [Example 7N, (R)-(1-fluorocyclopropyl)(6-(4-(2-(2-hydroxyethoxy)phenyl)piperidin-1-yl)-2-azaspiro[3.4]octan-2-yl)methanone or (S)-(1-fluorocyclopropyl)(6-(4-(2-(2-hydroxyethoxy)phenyl)piperidin-1-yl)-2-azaspiro[3.4]octan-2-yl)methanone], for which, in test [1], the “M4 FDSS PA” value was 68% and the concentration giving a half-maximal response (EC50) stood at 1 nM. The “M2 FDSS PA” value in test [2] was found to be 0%.
The like results for `Cc1nnc(COc2ccccc2C2CCN([C@@H]3CCC4(C3)CN(C(=O)C3(F)CC3)C4)CC2)o1` (single isomer, unassigned) [Example 7W, (R)-(1-fluorocyclopropyl)(6-(4-(2-((5-methyl-1,3,4-oxadiazol-2-yl)methoxy)phenyl)piperidin-1-yl)-2-azaspiro[3.4]octan-2-yl)methanone or (S)-(1-fluorocyclopropyl)(6-(4-(2-((5-methyl-1,3,4-oxadiazol-2-yl)methoxy)phenyl)piperidin-1-yl)-2-azaspiro[3.4]octan-2-yl)methanone] were, in that order, 67%, below 0.4 nM and 0%.
With `Cc1nnc(COc2ccccc2C2CCN([C@@H]3CCC4(C3)CN(C(=O)C3(F)CC3)C4)CC2)s1` (single isomer, unassigned) [Example 7R, (R)-(1-fluorocyclopropyl)(6-(4-(2-((5-methyl-1,3,4-thiadiazol-2-yl)methoxy)phenyl)piperidin-1-yl)-2-azaspiro[3.4]octan-2-yl)methanone or (S)-(1-fluorocyclopropyl)(6-(4-(2-((5-methyl-1,3,4-thiadiazol-2-yl)methoxy)phenyl)piperidin-1-yl)-2-azaspiro[3.4]octan-2-yl)methanone], in test [1], the “M4 FDSS PA” value is given as 36% and the EC50 was 62 nM. Moreover, in test [2], the “M2 FDSS PA” value is 15% and the EC50 came out at 6600 nM.
Turning to `O=C(N1CC2(CC[C@@H](N3CCC(c4cc(F)ccc4C4(O)CCOCC4)CC3)C2)C1)C1(F)CC1` (single isomer, unassigned) [Example 9J, (R)-(6-(4-(5-fluoro-2-(4-hydroxytetrahydro-2H-pyran-4-yl)phenyl)piperidin-1-yl)-2-azaspiro[3.4]octan-2-yl)(1-fluorocyclopropyl)methanone or (S)-(6-(4-(5-fluoro-2-(4-hydroxytetrahydro-2H-pyran-4-yl)phenyl)piperidin-1-yl)-2-azaspiro[3.4]octan-2-yl)(1-fluorocyclopropyl)methanone], in test [1], the “M4 FDSS PA” value worked out at 1% and the EC50 is 241 nM. The “M2 FDSS PA” value in test [2] was found to be 0%.
Consider `Fc1cncc(N2CC3(CC[C@@H](N4CCC(c5cc(F)ccc5OC5CCOCC5)CC4)C3)C2)c1` (single isomer, unassigned) [Example 10B, (R)-6-(4-(5-fluoro-2-((tetrahydro-2H-pyran-4-yl)oxy)phenyl)piperidin-1-yl)-2-(5-fluoropyridin-3-yl)-2-azaspiro[3.4]octane or (S)-6-(4-(5-fluoro-2-((tetrahydro-2H-pyran-4-yl)oxy)phenyl)piperidin-1-yl)-2-(5-fluoropyridin-3-yl)-2-azaspiro[3.4]octane], for which, in test [1], the “M4 FDSS PA” value is reported as 41% and the EC50 worked out at 45 nM. Besides, in test [2], the “M2 FDSS PA” value was found to be 31% and the EC50 was determined as 14400 nM.
For the molecule `O=C(N1CC2(CC[C@@H](N3CCC(c4ccccc4C4(O)CCOCC4)CC3)C2)C1)C1(F)CC1` (single isomer, unassigned) [Example 9H, (R)-(1-fluorocyclopropyl)(6-(4-(2-(4-hydroxytetrahydro-2H-pyran-4-yl)phenyl)piperidin-1-yl)-2-azaspiro[3.4]octan-2-yl)methanone or (S)-(1-fluorocyclopropyl)(6-(4-(2-(4-hydroxytetrahydro-2H-pyran-4-yl)phenyl)piperidin-1-yl)-2-azaspiro[3.4]octan-2-yl)methanone], in test [1], the “M4 FDSS PA” value amounted to 0% and the EC50 was above 25000 nM. For the same molecule, in test [2], the “M2 FDSS PA” value was 0%.
Regarding `Fc1ccc(OC2CCOCC2)c(C2CCN([C@@H]3CCC4(C3)CN(c3cncnc3)C4)CC2)c1` (single isomer, unassigned) [Example 10H, (R)-6-(4-(5-fluoro-2-((tetrahydro-2H-pyran-4-yl)oxy)phenyl)piperidin-1-yl)-2-(pyrimidin-5-yl)-2-azaspiro[3.4]octane or (S)-6-(4-(5-fluoro-2-((tetrahydro-2H-pyran-4-yl)oxy)phenyl)piperidin-1-yl)-2-(pyrimidin-5-yl)-2-azaspiro[3.4]octane], in test [1], the “M4 FDSS PA” value was found to be 51% and the EC50 turned out to be 19 nM. Moreover, the “M2 FDSS PA” value in test [2] is given as 0%.
For `COc1ccccc1C1CCN([C@@H]2CCC3(C2)CN(c2cncc(F)c2)C3)CC1` [Example 5F, (R)-2-(5-fluoropyridin-3-yl)-6-(4-(2-methoxyphenyl)piperidin-1-yl)-2-azaspiro[3.4]octane], the Emax amounted to 59% in test [1] and 26% in test [2]. Also, the EC50 in test [1] was found to be 6 nM.
The like results for `COc1ccccc1C1CCN([C@@H]2CCC3(C2)CN(c2ccc(C)nc2)C3)CC1` [Example 5D, (R)-6-(4-(2-methoxyphenyl)piperidin-1-yl)-2-(6-methylpyridin-3-yl)-2-azaspiro[3.4]octane] were, in that order, 36%, 0% and 156 nM.
As to `COc1ccccc1C1CCN([C@@H]2CCC3(C2)CN(c2ncon2)C3)CC1` [Example 4A, (R)-3-(6-(4-(2-methoxyphenyl)piperidin-1-yl)-2-azaspiro[3.4]octan-2-yl)-1,2,4-oxadiazole], in test [1], the Emax came out at 77% and the EC50 was below 0.4 nM. Further, in test [2], the Emax worked out at 21% and the EC50 came to 19 nM.
As for `Cc1nnc(COc2ccccc2C2CCN([C@@H]3CCC4(C3)CN(C(=O)C3(F)CC3)C4)CC2)o1` (single isomer, unassigned) [Example 7Y, (R)-(1-fluorocyclopropyl)(6-(4-(2-((5-methyl-1,3,4-oxadiazol-2-yl)methoxy)phenyl)piperidin-1-yl)-2-azaspiro[3.4]octan-2-yl)methanone or (S)-(1-fluorocyclopropyl)(6-(4-(2-((5-methyl-1,3,4-oxadiazol-2-yl)methoxy)phenyl)piperidin-1-yl)-2-azaspiro[3.4]octan-2-yl)methanone], in test [1], the “M4 FDSS PA” value was 49% and the EC50 was 22 nM. Besides, the “M2 FDSS PA” value in test [2] is 0%.
